Experimental data reported in patent publication US20080009025A1, “PROTEIN KINASE REGULATION” (priority 1999, published 2008).
Where a SMILES comes first, the peptide text is derived from it.

Molecular target: T1, PDK1 (Homo sapiens, UniProt O15530)
T1 sequence (O15530 1-556): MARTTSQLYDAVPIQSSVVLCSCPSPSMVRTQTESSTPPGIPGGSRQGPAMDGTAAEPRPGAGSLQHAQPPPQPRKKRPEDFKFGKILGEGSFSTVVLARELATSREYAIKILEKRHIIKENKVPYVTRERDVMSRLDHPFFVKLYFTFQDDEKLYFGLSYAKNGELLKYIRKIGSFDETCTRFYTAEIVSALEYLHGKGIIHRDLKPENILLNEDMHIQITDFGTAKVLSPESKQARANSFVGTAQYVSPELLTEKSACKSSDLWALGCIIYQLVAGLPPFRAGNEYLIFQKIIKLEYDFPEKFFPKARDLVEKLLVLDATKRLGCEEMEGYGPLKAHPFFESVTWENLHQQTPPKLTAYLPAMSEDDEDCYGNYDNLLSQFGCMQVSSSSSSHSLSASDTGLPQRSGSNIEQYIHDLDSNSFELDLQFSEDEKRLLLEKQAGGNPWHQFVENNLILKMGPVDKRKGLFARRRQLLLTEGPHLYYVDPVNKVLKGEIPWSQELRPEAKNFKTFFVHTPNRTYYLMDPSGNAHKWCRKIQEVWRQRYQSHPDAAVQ
Test: Phosphorylation of GST-p70 S6K-T2 by PDK1 in vitro (32P autoradiography)
Type: biochemical
Parameters: made in house; host or cells: 293 cells or E. coli
Details: GST-PDK1 50 nM
Procedure: FIG. 1. PIF prevents PDK1 from phosphorylating p70 S6K in vitro. GST-p70 S6K lacking the C-terminal 104 amino acids (GST-p70 S6KT2) (1 μg) was incubated for 30 min at 30° C. with Mg [γ^32P] ATP and GST-PDK1 (50 nM) in the presence or absence of either wild type (wt) GST-PIF or D978A GST-PIF (1.5 μM), or the indicated PIF peptides (4 μM) in a final volume of 20 μl. The reactions were terminated by making the solutions 1% in SDS, the samples subjected to SDS-polyacylamide gel electrophoresis, and the phosphorylation assessed by autoradiography of the gel. The position in the gel where GST-p70 S6KT2 (73 kDa) migrates is indicated with an arrow. The only other ^32P-labelled protein on the gel which is not shown, corresponded to autophosphorylation of PDK1 and contained ˜10 fold lower levels of ^32P-radioactivity than that of the GST-p70 S6T2 phosphorylated by PDK1 in the absence of PIF. A high amount of PDK1 is used in this experiment to achieve a near maximal phosphorylation of GST-p70 S6T2. If the reactions were carried out at a 10-fold lower concentration of PDK1 under conditions where the phosphorylation of GST-p70 S6T2 by PDK1 is linear with time and the amount of substrate used, then PIF still prevented the phosphorylation of GST-p70 S6T2 (data not shown). wt indicates wild type and PSer indicates phospho-serine. The results of a duplicate experiment for each condition are shown, and similar findings were obtained in five separate experiments.
Preparation of insect cell His-p70 S6K. p70 S6K with a His-epitope tag at its N-terminus lacking the carboxy terminal 104 residues is termed p70 S6K-T2. In order to prepare wild type and the mutant 412E-p70 S6K-T2 the cDNA for these constructs was amplified by PCR from the pMT2 vector encoding these forms of p70 S6K [6] using the following oligonucleotides: 5′-AGGATCCACCATGCACCATCACCATCACCATATGAGGCGAGCAAGGAGGCGG-3′ and 5′-GCGGCCGCTCAACTTTCAAGTACAGATGGAGCC-3′. The PCR products were then subcloned into the BamH1/Not1 sites of the pFASTBAC 1 vector and this vector was used to generate recombinant baculovirus using the Bac-to-Bac system (Life Technologies Inc). The resulting viruses, encoded p70 S6K-T2 or 412E-p70 S6K-T2 with an N-terminal hexahistidine sequence, and was used to infect Sf21 cells (1.5×10^6/m) at a multiplicity of infection of 5. The infected cells were harvested 72 h post-infection and the His-p70 S6K proteins purified by Ni^2+/NTA (nitrilotriacetic acid)-agarose chromatography as described previously for PKBβ [25]. […]

Row | Molecule | effect on phosphorylation of GST-p70 S6K-T2 by PDK1 (peptide 4 μM) | effect on phosphorylation of GST-p70 S6K-T2 by PDK1 (GST fusion 1.5 μM)
1 | CC[C@H](C)[C@H](NC(=O)[C@H](CCCNC(=N)N)NC(=O)[C@@H]1CCCN1C(=O)[C@H](CCC(=O)O)NC(=O)[C@@H](N)CCCNC(=N)N)C(=O)N[C@@H](CC(C)C)C(=O)N[C@@H](CO)C(=O)N[C@@H](CCC(=O)O)C(=O)N[C@@H](CCC(=O)O)C(=O)N[C@@H](CCC(=O)O)C(=O)N[C@@H](CCC(N)=O)C(=O)N[C@@H](CCC(=O)O)C(=O)N[C@@H](CCSC)C(=O)N[C@@H](Cc1ccccc1)C(=O)N[C@@H](CCCNC(=N)N)C(=O)N[C@@H](CC(=O)O)C(=O)N[C@@H](Cc1ccccc1)C(=O)N[C@@H](C)C(=O)N[C@@H](Cc1ccc(O)cc1)C(=O)N[C@@H](CC(C)C)C(=O)N[C@@H](C)C(=O)N[C@@H](CC(=O)O)C(=O)N[C@@H](Cc1c[nH]c2ccccc12)C(=O)N[C@@H](CS)C(=O)O [D978A-PIFtide] (H-REPRILSEEEQEMFRDFAYLADWC-OH; N-terminus and C-terminus assumed) | poorly inhibited | –
2 | CC[C@H](C)[C@H](NC(=O)[C@H](Cc1ccc(O)cc1)NC(=O)[C@H](CC(=O)O)NC(=O)[C@H](Cc1ccccc1)NC(=O)[C@H](CC(=O)O)NC(=O)[C@H](CCCNC(=N)N)NC(=O)[C@H](Cc1ccccc1)NC(=O)[C@H](CCSC)NC(=O)[C@H](CCC(=O)O)NC(=O)[C@H](CCC(N)=O)NC(=O)[C@H](CCC(=O)O)NC(=O)[C@H](CCC(=O)O)NC(=O)[C@H](CCC(=O)O)NC(=O)[C@H](CO)NC(=O)[C@H](CC(C)C)NC(=O)[C@@H](NC(=O)[C@H](CCCNC(=N)N)NC(=O)[C@@H]1CCCN1C(=O)[C@H](CCC(=O)O)NC(=O)[C@@H](N)CCCNC(=N)N)[C@@H](C)CC)C(=O)N[C@@H](C)C(=O)N[C@@H](CC(=O)O)C(=O)N[C@@H](Cc1c[nH]c2ccccc12)C(=O)N[C@@H](CS)C(=O)O [PIFtide] (H-REPRILSEEEQEMFRDFDYIADWC-OH; N-terminus and C-terminus assumed) | unable to phosphorylate | –
3 | GST-PIF: glutathione S-transferase fused to the last 77 residues of PRK2 (PIF) | – | unable to phosphorylate
